# Experimental data as given in patent US20230159510A1, “NOVEL PRMT5 INHIBITORS” (AMGEN INC., priority 2020, published 2023).
# Read-outs that look alike come from different tables or passages of the source.
# Experiments:
# [1] = system: HCT116 WT cells; test: HCT116 proliferation assay, WT cells (CellTiter-Glo, 6 days); type: cell-based; conditions: read-out: Prolif_HCT116-WT IC50
# Method: (§1) HCT116 MTAP null and WT cells were seeded in 96-well tissue culture plates in RPMI 1640 media + 10% fetal bovine serum. Plates were incubated overnight at 37° C. and 5% CO2. Cells were then treated with a 8- or 9-point serial dilution of compound, using a top concentration of 1 or 10 µM, 1:3 serial dilution steps and, a DMSO-only control. Cells were incubated in the presence of drug for 6 days. Effects on cell viability were measured with the CellTiter-Glo® Luminescent Cell Viability Assay (Promega) per manufacturer’s recommendation. Assay plates were read on an EnVision™ Multilabel Reader using the Ultra-Sensitive luminescence module.
# [2] = system: HCT116 MTAP null cells; test: HCT116 proliferation assay, MTAP null cells (CellTiter-Glo, 6 days); type: cell-based; conditions: read-out: Protif_ HCT116-MTAP null IC50
# Method: as §1
IC50 [1],IC50 [2],"IC50 ([1]; Homo sapiens, HCT-116, 144 h)","IC50 ([2]; HCT116-MTAP null, 144 h)",Compound
9300 nM,393 nM,–,–,"2-amino-3-methyl-N-(4-(3-oxetanyl)benzyl)-N-((1R)-1-(2-pyrimidinyl)ethyl)-6-quinolinecarboxamide, 2-amino-3-methyl-N-(4-(3-oxetanyl)benzyl)-N-((1S)-1-(2-pyrimidinyl)ethyl)-6-quinolinecarboxamide [Example 802]"
> 10000 nM,408 nM,–,–,"2-amino-N-((1S,2S)-2-methoxy-2,3-dihydro-1H-inden-1-yl)-3-methyl-N-((5-(trifluoromethyl)-2-pyridinyl)methyl)-6-quinolinecarboxamide [Example 753]"
5260 nM,385 nM,–,–,"2-amino-N-((3R,4S)-3-fluorotetrahydro-2H-pyran-4-yl)-3-methyl-N-((5-(trifluoromethyl)-2-pyridinyl)methyl)-6-quinolinecarboxamide and 2-amino-N-((3S,4R)-3-fluorotetrahydro-2H-pyran-4-yl)-3-methyl-N-((5-(trifluoromethyl)-2-pyridinyl)methyl)-6-quinolinecarboxamide [Example 747]"
2620 nM,84 nM,–,–,"CO[C@@H]1COCC[C@H]1N(Cc1ccc(C(F)(F)F)cn1)C(=O)c1ccc2nc(N)c(C)cc2c1 (mixture of isomers) [Example 748, 2-amino-N-((3R,4S)-3-methoxytetrahydro-2H-pyran-4-yl)-3-methyl-N-((5-(trifluoromethyl)-2-pyridinyl)methyl)-6-quinolinecarboxamide and 2-amino-N-((3S,4R)-3-methoxytetrahydro-2H-pyran-4-yl)-3-methyl-N-((5-(trifluoromethyl)-2-pyridinyl)methyl)-6-quinolinecarboxamide]"
–,–,2150 nM,95 nM,"Cc1cc2cc(C(=O)N(Cc3ccc(C(F)(F)F)cn3)[C@@H]3COCC[C@H]3F)ccc2nc1N (mixture of isomers) [Example 749, 2-amino-N-((3R,4R)-4-fluorotetrahydro-2H-pyran-3-yl)-3-methyl-N-((5-(trifluoromethyl)-2-pyridinyl)methyl)-6-quinolinecarboxamide and 2-amino-N-((3S,4S)-4-fluorotetrahydro-2H-pyran-3-yl)-3-methyl-N-((5-(trifluoromethyl)-2-pyridinyl)methyl)-6-quinolinecarboxamide]"
–,–,> 10000 nM,412 nM,"Cc1cc2cc(C(=O)N(Cc3ccc(C(F)(F)F)cn3)[C@@H]3CCOC[C@H]3O)ccc2nc1N (mixture of isomers) [Example 803, 2-amino-N-((3R,4S)-3-hydroxytetrahydro-2H-pyran-4-yl)-3-methyl-N-((5-(trifluoromethyl)-2-pyridinyl)methyl)-6-quinolinecarboxamide and 2-amino-N-((3S,4R)-3-hydroxytetrahydro-2H-pyran-4-yl)-3-methyl-N-((5-(trifluoromethyl)-2-pyridinyl)methyl)-6-quinolinecarboxamide]"
–,–,6960 nM,250 nM,"CO[C@@H]1CCCC[C@H]1N(Cc1ccc(C(F)(F)F)cn1)C(=O)c1cnc2nc(N)c(Br)cc2c1 (racemic) [Example 798, 7-amino-6-bromo-N-((1R,2R)-2-methoxycyclohexyl)-N-((5-(trifluoromethyl)pyridin-2-yl)methyl)-1,8-naphthyridine-3-carboxamide]"
–,–,1190 nM,39 nM,"CO[C@@H]1CCOC[C@H]1N(Cc1ccc(C(F)(F)F)cn1)C(=O)c1ccc2nc(N)c(C)cc2c1 (racemic) [Example 833, 2-Amino-N-((3R,4R)-4-methoxytetrahydro-2H-pyran-3-yl)-3-methyl-N-((5-(trifluoromethyl)-2-pyridinyl)methyl)-6-quinolinecarboxamide and 2-amino-N-((3S,4S)-4-methoxytetrahydro-2H-pyran-3-yl)-3-methyl-N-((5-(trifluoromethyl)-2-pyridinyl)methyl)-6-quinolinecarboxamide]"
–,–,2080 nM,96 nM,"CC[C@H](c1ncccn1)N(Cc1ccc(C(F)(F)F)cn1)C(=O)c1cnc2nc(N)c(Br)cc2c1 (single isomer, unassigned) [Example 443]"
–,–,2330 nM,59 nM,"Cc1cc2cc(C(=O)N(Cc3ccc(C(F)(F)F)cn3)[C@H](C)c3ccc(F)cn3)ccc2nc1N (single isomer, unassigned) [Example 484]"
–,–,4680 nM,734 nM,"Cc1cc2cc(C(=O)N(Cc3ccc(C(F)(F)F)cn3)[C@@H](C)c3ccc(F)cn3)ccc2nc1N (single isomer, unassigned) [Example 485]"
–,–,2350 nM,135 nM,"Cc1cc2cc(C(=O)N(Cc3ncccc3F)[C@H]3COc4cc(C(F)(F)F)ccc43)ccc2nc1N (single isomer, unassigned) [Example 524]"
–,–,5210 nM,139 nM,"COc1ccc(CN(C[C@H](OC)C(F)(F)F)C(=O)c2ccc3nc(N)c(C)cc3c2)nn1 (single isomer, unassigned) [Example 774]"
–,–,1680 nM,50 nM,"COc1ccc(CN(C(=O)c2ccc3nc(N)c(C)cc3c2)[C@@H](c2ncccn2)C2CC2)nn1 (single isomer, unassigned) [Example 775]"
–,–,1800 nM,144 nM,"Cc1cc2cc(C(=O)N(Cc3ccc(C(F)(F)F)cn3)[C@@H]3CC(F)(F)C[C@H]3O)ccc2nc1N (single isomer, unassigned) [Example 780]"
–,–,3400 nM,260 nM,"Cc1cc2cc(C(=O)N(Cc3ccc(C(F)(F)F)cn3)[C@@H]3CCOC[C@H]3F)ccc2nc1N (single isomer, unassigned) [Example 781]"
–,–,460 nM,17 nM,"CO[C@@H]1CCOC[C@H]1N(Cc1ccc(C(F)(F)F)cn1)C(=O)c1ccc2nc(N)c(C)cc2c1 (single isomer, unassigned) [Example 782]"
–,–,4700 nM,261 nM,"Cc1cc2cc(C(=O)N(Cc3ncccc3Cl)[C@H](C)c3ncccn3)c(F)cc2nc1N (single isomer, unassigned) [Example 784]"

IC50 [1],IC50 [2],"IC50 ([1]; Homo sapiens, HCT-116, 144 h)","IC50 ([2]; HCT116-MTAP null, 144 h)",Compound
–,–,2600 nM,123 nM,"COc1ccc(CN(C(=O)c2ccc3nc(N)c(C)cc3c2)[C@H](C)c2ncn(C)n2)nn1 (single isomer, unassigned) [Example 785]"
–,–,> 10000 nM,322 nM,"COc1ccc(CN(C(=O)c2ccc3nc(N)c(C)cc3c2)[C@H](C)c2ncccn2)cn1 (single isomer, unassigned) [Example 786]"
–,–,1740 nM,59 nM,"C[C@H](c1cscn1)N(Cc1ccc(C(F)(F)F)nn1)C(=O)c1cnc2nc(N)c(Br)cc2c1 (single isomer, unassigned) [Example 787]"
–,–,1590 nM,64 nM,"CC[C@H](c1ncccn1)N(Cc1ccc(C(F)(F)F)cn1)C(=O)c1cnc2nc(N)c(I)cc2c1 (single isomer, unassigned) [Example 788]"
–,–,362 nM,15 nM,"COC[C@@H](C1CC1)N(Cc1ccc(C(F)(F)F)cn1)C(=O)c1ccc2nc(N)c(C)cc2c1 (single isomer, unassigned) [Example 809]"
–,–,5400 nM,594 nM,"COC[C@H](C1CC1)N(Cc1ccc(C(F)(F)F)cn1)C(=O)c1ccc2nc(N)c(C)cc2c1 (single isomer, unassigned) [Example 810]"
–,–,> 10000 nM,422 nM,"Cc1cc2cc(C(=O)N(Cc3ccc(C(F)(F)F)cn3)[C@H](C)c3cccc(C#N)n3)ccc2nc1N (single isomer, unassigned) [Example 811]"
–,–,1040 nM,43 nM,"Cc1cc2cc(C(=O)N(Cc3ccc(C(F)(F)F)cn3)[C@@H]3CCC[C@H]3C#N)ccc2nc1N (single isomer, unassigned) [Example 812]"
–,–,2630 nM,98 nM,"Cc1cc2cc(C(=O)N(Cc3ccc(C(F)(F)F)nn3)[C@@H]3CCCn4ccnc43)ccc2nc1N (single isomer, unassigned) [Example 813]"
–,–,1760 nM,62 nM,"Cc1cc2cc(C(=O)N(Cc3ccc(C(F)(F)F)cn3)[C@@H]3COCc4ncccc43)ccc2nc1N (single isomer, unassigned) [Example 814]"
–,–,5150 nM,250 nM,"Cc1cc2cc(C(=O)N(Cc3ccc(C(F)(F)F)cn3)[C@@H]3CCOC[C@H]3O)ccc2nc1N (single isomer, unassigned) [Example 815]"
–,–,1310 nM,369 nM,"Cc1cc2cc(C(=O)N(Cc3ccc(C(F)(F)F)cn3)[C@H]3CCC[C@@H]3OC(F)F)ccc2nc1N (single isomer, unassigned) [Example 817]"
–,–,372 nM,24 nM,"Cc1cc2cc(C(=O)N(Cc3ccc(C(F)(F)F)cn3)[C@H](C)c3ncon3)ccc2nc1N (single isomer, unassigned) [Example 818]"
–,–,543 nM,29 nM,"Cc1cc2cc(C(=O)N(Cc3ccc(Cl)nn3)[C@H](C)c3ncccn3)ccc2nc1N (single isomer, unassigned) [Example 819]"
–,–,3550 nM,239 nM,"Cc1cc2cc(C(=O)N(Cc3ccc(C#N)nc3C)[C@H](C)c3ncccn3)ccc2nc1N (single isomer, unassigned) [Example 820]"
–,–,> 10000 nM,129 nM,"C[C@H](c1ncccn1)N(Cc1cc2c(cn1)OCCC2)C(=O)c1ccc2nc(N)c(I)cc2c1 (single isomer, unassigned) [Example 836]"
–,–,–,> 1000 nM,"C#CCCCN(Cc1ccc(C(F)(F)F)cn1)C(=O)c1ccc2nc(N)c(C)cc2c1 [Example 692, 2-amino-3-methyl-N-pent-4-ynyl-N-[[5-(trifluoromethyl)-2-pyridyl]methyl] quinoline-6-carboxamide]"
